Here are results for eight compounds from patent EP4548976A1, “ANTIVIRAL COMPOUNDS AND COMPOSITIONS THEREFROM” (Consejo Superior De Investigaciones Científicas, priority 2023, dated 2025).

The test system of series [1] is SARS-CoV-2 stock strain NL/2020. As to the kind of experiment: Antiviral activity in A549-ACE2 cells using viral antigen quantitation (SARS-CoV-2 N protein immunofluorescence). The format is cell-based. Particulars: Severe acute respiratory syndrome coronavirus 2, MOI 0.005, 48 h; for EC50: concentration reducing SARS-CoV-2 infection efficiency by 50% vs vehicle; for EC90: concentration reducing SARS-CoV-2 infection efficiency by 90% vs vehicle.

The next series in a line: in vitro. Particulars: human.

What is called EC50 is the concentration at which the effect is half-maximal. Lower therefore signals higher potency in that assay. One may read the EC90 as the concentration needed for an effect of 90%. Read a high EC90 as a need for much substance. Turning to `COC(=O)c1cc(-c2ccc(NC(C)=O)nc2)ccc1NC(C#N)[C@H](Cc1c[nH]c2ccccc12)NC(=O)OC(C)(C)C` (mixture of isomers) [Example 29, Methyl 5-(6-acetamidopyridin-3-yl)-2-(((1RS,2S)-2-((tert-butoxycarbonyl)amino)-1-cyano-3-(1H-indol-3-yl)propyl)amino)benzoate], in series [1], the EC50 worked out at 3 µM and the EC90 was determined as 8 µM. Also, the CC50 in the series “in vitro” is > 50 µM.

For `COC(=O)c1cc(-c2ccc3ocnc3c2)ccc1NC(C#N)[C@H](Cc1c[nH]c2ccccc12)NC(=O)OC(C)(C)C` (mixture of isomers) [Example 24, Methyl 5-(benzo[d]oxazol-5-yl)-2-(((1RS,2S)-2-((tert-butoxycarbonyl)amino)-1-cyano-3-(1H-indol-3-yl)propyl)amino)benzoate], in series [1], the half-maximal effective concentration (EC50) came out at 6 µM and the EC90 turned out to be 9 µM. For the same compound, in the series “in vitro”, the CC50 is > 50 µM.

Regarding `COC(=O)c1cc(-c2ccc(F)c(-c3nn[nH]n3)c2)ccc1NC(C#N)[C@H](Cc1c[nH]c2ccccc12)NC(=O)OC(C)(C)C` (mixture of isomers) [Example 21, Methyl 4-(((1RS,2S)-2-((tert-butoxycarbonyl)amino)-1-cyano-3-(1H-indol-3-yl)propyl)amino)-4'-fluoro-3'-(2H-tetrazol-5-yl)-[1,1'-biphenyl]-3-carboxylate], in series [1], the EC50 turned out to be 6 µM and the EC90 was > 50 µM. The CC50 in “in vitro” was > 50 µM.

Take `COC(=O)c1cc(-c2ccc3[nH]ccc3c2)ccc1NC(C#N)[C@@H](Cc1c[nH]c2ccccc12)NC(=O)OC(C)(C)C` (mixture of isomers) [Example 27, Methyl 2-(((1RS,2R)-2-((tert-butoxycarbonyl)amino)-1-cyano-3-(1H-indol-3-yl)propyl)amino)-5-(1H-indol-5-yl)benzoate]: in series [1], the EC50 is 7 µM and the EC90 was 9 µM. The compound further had a CC50 in “in vitro” of 35 µM.

As for `COC(=O)c1cc(-c2ccc3c(ccn3C(=O)OC(C)(C)C)c2)ccc1NC(C#N)[C@H](Cc1c[nH]c2ccccc12)NC(=O)OC(C)(C)C` (mixture of isomers) [Example 19, tert-Butyl 5-(4-(((1RS,2S)-2-((tert-butoxycarbonyl)amino)-1-cyano-3-(1H-indol-3-yl)propyl)amino)-3-(methoxycarbonyl)phenyl)-1H-indole-1-carboxylate], in series [1], the EC50 is 6 µM and the EC90 is 31 µM. The CC50 in “in vitro” is > 50 µM.

Regarding `COC(=O)c1cc(-c2ccnc(N3CCOCC3)c2)ccc1NC(C#N)[C@H](Cc1c[nH]c2ccccc12)NC(=O)OC(C)(C)C` (mixture of isomers) [Example 7, Methyl 2-(((1RS,2S)-2-((tert-butoxycarbonyl)amino)-1-cyano-3-(1H-indol-3-yl)propyl)amino)-5-(2-morpholinopyridin-4-yl)benzoate], in series [1], the EC50 amounted to 1.1 µM and the EC90 worked out at 6 µM. Moreover, the CC50 in the series “in vitro” is > 50 µM.

For `COC(=O)c1cc(-c2cnn(CCN3CCOCC3)c2)ccc1NC(C#N)[C@H](Cc1c[nH]c2ccccc12)NC(=O)OC(C)(C)C` (mixture of isomers) [Example 25, Methyl 2-(((1RS,2S)-2-((tert-butoxycarbonyl)amino)-1-cyano-3-(1H-indol-3-yl)propyl)amino)-5-(1-(2-morpholinoethyl)-1H-pyrazol-4-yl)benzoate], in series [1], the EC50 was determined as 6 µM and the EC90 was determined as 9 µM. Besides, the CC50 in the series “in vitro” was > 50 µM.

In series [1], `COC(=O)c1cc(-c2cccc3[nH]ncc23)ccc1NC(C#N)[C@H](Cc1c[nH]c2ccccc12)NC(=O)OC(C)(C)C` (mixture of isomers) [Example 30, Methyl 2-(((1RS,2S)-2-((tert-butoxycarbonyl)amino)-1-cyano-3-(1H-indol-3-yl)propyl)amino)-5-(1H-indazol-4-yl)benzoate] returned a 50% effective concentration (EC50) of 1 µM and an EC90 of 2 µM. The compound also yielded a CC50 in “in vitro” of 10 µM.
